Usually Ki stands for a measure of affinity in units of concentration, obtained from inhibition or displacement.

The target of one assay is T1, h-5HT1A (Homo sapiens, UniProt P08908).
T1 construct: expressed in transfected cells; host or cells: CHO cells grown in suspension in a 10 liter bioreactor
T1 sequence (P08908 1-422): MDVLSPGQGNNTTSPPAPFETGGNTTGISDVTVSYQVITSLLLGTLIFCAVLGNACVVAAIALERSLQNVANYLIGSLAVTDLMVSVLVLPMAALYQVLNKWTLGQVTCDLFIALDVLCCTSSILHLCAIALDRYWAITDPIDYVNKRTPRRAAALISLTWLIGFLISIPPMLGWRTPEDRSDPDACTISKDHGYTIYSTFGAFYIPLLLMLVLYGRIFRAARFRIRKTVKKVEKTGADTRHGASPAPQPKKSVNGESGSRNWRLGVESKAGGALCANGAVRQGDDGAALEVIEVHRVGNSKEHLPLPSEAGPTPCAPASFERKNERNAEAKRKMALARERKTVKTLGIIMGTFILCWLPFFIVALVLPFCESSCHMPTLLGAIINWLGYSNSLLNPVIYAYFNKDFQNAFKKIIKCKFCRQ
Kind of assay: 5HT1A receptor SPA binding assay, [3H]-OH DPAT, CHO cell membranes. The conditions noted are these: [3H]-OH DPAT 3 nM. On the procedure: Determination of the Inhibitory Activity of Compounds at the Serotonin 5HT1A Receptor Subtype using Scintillation Proximity Assay (SPA) Technology
Cells: CHO cells expressing the serotonin 5HT1A receptor subtype were grown in suspension in 10 liter bioreactor and supplied as a wet cell pellet
Binding experiments are performed in a total volume of 200 μl using a 96 well microtiter plate format (Packard Optiplate). On the day of the assay, the membranes are thawed and resuspended with enough 50 mM Tris (HCI) pH 7.5, 10 mM MgCl2, 0.2 mM EDTA, 10 μM pargyline, and 0.1% ascorbate (assay buffer) to achieve a protein concentration of 800 μg/ml. To each well of the microtiter plate, 20 μl of 10× test compound in water containing 3.3% DMSO, 3 nM of [3H]-OH DPAT (Amersham, SA: 200 Ci/mmol), 80 μg cell membrane and assay buffer are combined to achieve a volume of 150 μl. Assay buffer and 10 μM cold 5-HT are substituted for the test compound in separate wells to define ‘total’ and ‘nonspecific’ bindings, respectively. The incubation period is initiated by the addition of 50 μl of 10 mg/ml PVT WGA SPA beads (RPNQ0060, Amersham GE Healthcare) resuspended in assay buffer for a final concentration of 0.5 mg/well. The plates are sealed and gently shaken at room temperature using an orbital shaker (setting 1.5) until equilibrium is achieved (2 h-overnight incubation). Radioactivity (CPM) is measured by Packard TopCount (1 min counting time/well).
Specific binding is described as the total radioactivity bound less the amount bound in the presence of 10 μM 5HT, referred to as non-specific binding (NSB). Binding in the presence of varying concentrations of test compounds is expressed as percent of specific binding in the absence of compound.
{(Bound−NSB)/(Total−NSB)}×100=% Total
Regression analysis of % bound data from ten concentrations is performed in GraphPad Prism, XL Fit or equivalent software. IC50 values are calculated using a four-parameter logistic curve fitting model and Ki values are calculated by the Cheng-Prusoff equation below: […]
where L is the nM concentration of the radioactive ligand used and the Kd is the dissociation constant of the ligand for the receptor. The Kd for [3H-OH DPAT in the SPA binding format is 3 nM. • Single dose
Percent inhibition: The displacement of […] by the test compound at h5-HT1A as determined by: [(Total DPM−compound DPM)/(Total DPM−NSB DPM)]×100. • Conc.: concentration of test compound; NBS: non-specific binding; DPM: disintegrations per min

In assay [1] the target is Human Serotonin Transporter (h5HT-T) (Homo sapiens, UniProt P31645). The assay can be described thus: biochemical.
Human Serotonin Transporter (h5HT-T), sequence (P31645 whole entry): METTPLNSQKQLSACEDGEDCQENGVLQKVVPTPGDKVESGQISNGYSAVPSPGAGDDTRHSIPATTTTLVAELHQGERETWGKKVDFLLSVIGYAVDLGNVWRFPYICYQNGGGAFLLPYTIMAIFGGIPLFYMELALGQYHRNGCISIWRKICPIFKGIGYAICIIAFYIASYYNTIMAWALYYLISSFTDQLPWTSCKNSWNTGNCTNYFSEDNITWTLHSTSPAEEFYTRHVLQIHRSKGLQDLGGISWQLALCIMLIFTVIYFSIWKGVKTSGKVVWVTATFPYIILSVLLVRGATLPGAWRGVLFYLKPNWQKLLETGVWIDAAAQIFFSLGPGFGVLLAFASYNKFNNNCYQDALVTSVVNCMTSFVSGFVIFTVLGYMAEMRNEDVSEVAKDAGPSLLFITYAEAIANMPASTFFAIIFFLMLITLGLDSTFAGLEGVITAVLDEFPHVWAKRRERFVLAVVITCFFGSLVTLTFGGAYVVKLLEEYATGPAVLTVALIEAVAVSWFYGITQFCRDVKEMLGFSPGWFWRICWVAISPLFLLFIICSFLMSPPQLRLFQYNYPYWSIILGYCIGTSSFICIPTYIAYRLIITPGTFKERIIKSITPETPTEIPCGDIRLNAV
Procedure: MEDIA REAGENTS: Dulbecco's Modified Eagle Medium (DMEM) with High Glucose, L-Glutamine, 110 mg/L Sodium Pyruvate, Pyridoxine Hydrochloride containing: • a) 10% Fetal Bovine Serum, Heat-inactivated and Dialyzed (10,000 Mol Wt.) • b) 1% Pennicilin-streptomycin • c) 100 μg/ml Geneticin/G418 • 2. […] Immediately add 15 ml Cell Culture medium to inactivate trypsin and mix well. […] (eg. 1×T175 flask can seed 20×T175 flasks) • g) Incubate cells at 37° C., 5% CO2, in a humidified incubator. NOTE: Cells will grow to confluence within 3-4 days.
Cells are resuspended in 3 volumes of 50 mM Tris-HC1 (pH 7.4) to 1 volume of initial cell fraction • 2. Partially homogenize cells by swirling or by using transfer pipetor to make cell solution more homogenous and aliquot solution into 4 clear 50 ml polypropylene centrifuge tubes • 3. Tubes are balanced and spun down at 2,000 rpm for 10 minutes at 4° C. using the HS-4 rotor (rotor code 8) • 4. Supernatant is decanted and pellets resuspend in an additional 75 ml of 50 mM Tris-HCl (pH 7.4)→˜18 ml Tris to each of 4 tubes • 5. Spin cells again at 5, 000 rpm for minutes at 4° C. using the HS-4 rotor and decant supernatant • 6. Resuspend final pellts in appropriate volume of 50 nM Tris to yield protein concentration of ˜6 mg/ml • add 100 ml Tris to original cell suspension of 35 ml • add ˜72 ml; Tris to original cell suspension of 25 ml • 7. Add the appropriate final volume and split the cells into two/three 50 ml Falcon polypropylene tubes. Thoroughly vortex your cell suspension in these tubes to ensure homogeneity before aliquoting. • 8. Pool the samples from the 50 nl tubes into one larger flat-bottom vessel and stir constantly on ice (4° C.). • 9. While stirring, aliquot 1 ml portions out into 1.5 ml cryogenic vials. • 10. Store vials at −70° C. until subsequtn asay. Retain one aliquot for protein concentration, Kd and Bmax determination before starting experiments using new batch of cells. Proetin concentration is determined using the Lowry method.
Required buffers: • Assay buffer; 50 mM Tris HCl, 120 mM NaCl and 5 mM KCl, pH 7.4 • 2. Binding protocol: Preliminary screening assays are performed using single replicates on duplicate plates. Dose-response binding assays are performed in a single replicates on duplicate OptiPlates (Perkin Elmer) using 0.1 nM to 3 μM of test drug.
a) To each well add 10 μL of test compound, blank compound (10 μM Fluoxetine), or assay buffer (50 mM Tris HCl, 120 mM NaCl and 5 mM KCl, pH 7.4. Each well is then supplemented with 40 μL of assay buffer.
The isotope solution is also disuted in 50 mM Tris HCl, 120 mM NaCl and 5 mM KCl, pH 7.4 • c) Resuspend membrane pellet in binding buffer to achieve a solution containing 5 μg of protein in 50 μL. This will yield a final protein concentration of 5 μg/well. • d) To each well add 0.5 mg of Wheatgerm Agglutinin (WGA) SPA beads in 50 μl of 50 mM Tris HCl, 120 mM NaCl and 5 mM KCl, pH 7.4 • e) Incubate plates, while gently shaking, for at least 1 hour so as to reach equilibrium. Plates can still be read if left to incubate overnight without loss of signal. • f) Count plates on TopCount.
3H-Citallopram binding is expressed as percent of specific binding, with IC50 and Ki VALUES DETERMINED BY nonlinear regression analysis using the Activity Base software package. Specific binding is defined as total binding observed in the presence of 10 μM fluoxetine.
The target of another assay is T2, serotonin transporter (Rattus norvegicus, UniProt P31652).
T2 construct: displace ^3H-paroxetine from male rat frontal cortical membranes; from tissue; host or cells: male rat frontal cortex membranes
T2 sequence (P31652 whole entry): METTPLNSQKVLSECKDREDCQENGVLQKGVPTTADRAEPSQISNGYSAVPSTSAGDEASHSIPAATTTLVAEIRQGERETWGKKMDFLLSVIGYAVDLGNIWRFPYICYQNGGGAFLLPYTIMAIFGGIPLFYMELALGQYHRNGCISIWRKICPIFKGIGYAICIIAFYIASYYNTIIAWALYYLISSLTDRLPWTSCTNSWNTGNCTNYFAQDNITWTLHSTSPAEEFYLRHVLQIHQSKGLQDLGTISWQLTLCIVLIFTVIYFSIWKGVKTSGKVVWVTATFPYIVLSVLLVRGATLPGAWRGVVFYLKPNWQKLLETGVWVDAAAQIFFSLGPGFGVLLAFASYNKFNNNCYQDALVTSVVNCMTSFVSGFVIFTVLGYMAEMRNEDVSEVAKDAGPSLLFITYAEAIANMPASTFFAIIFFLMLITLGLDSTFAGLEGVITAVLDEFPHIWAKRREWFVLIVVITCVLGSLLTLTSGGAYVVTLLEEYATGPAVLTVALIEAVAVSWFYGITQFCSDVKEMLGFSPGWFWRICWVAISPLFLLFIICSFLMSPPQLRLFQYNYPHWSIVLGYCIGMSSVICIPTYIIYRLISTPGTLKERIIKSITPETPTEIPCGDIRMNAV
The assay can be described thus: Displacement of 3H-paroxetine from male rat frontal cortical membranes (serotonin transporter affinity). Particulars: 3H-paroxetine displacement, read-out: 5-HT Transporter Affinity Ki. Type of assay: binding. The source says:
Affinity of Compounds of the Invention for the Serotonin Transporter
For orientation: Loss of bound radioactivity is the signal in a displacement assay; it reports binding, not function.

The target of the next assay is T3, human 5HT1A receptors (Homo sapiens, UniProt P08908).
T3 construct: expressed in transfected cells; host or cells: CHO cells
T3 sequence (P08908 1-422): T1 sequence (P08908 1-422)
Kind of assay: Displacement of [3H] 8-OH-DPAT from 5HT1A receptor, CHO cells stably transfected with human 5HT1A receptors. The conditions noted are these: [3H] 8-OH-DPAT displacement, CHO cells with human 5HT1A; read-out: 5HT1A Receptor Affinity Ki. Type of assay: binding. The source says: High affinity for the serotonin 5HT1A receptor was established by testing the claimed compound's ability to displace [^3H] 8-OH-DPAT (dipropylamino-tetralin) from the 5HT1A serotonin receptor following a modification of the procedure of Hall et al., J. Neurochem. 44, 1685 (1985) which utilizes CHO cells stably transfected with human 5HT1A receptors.

SMILES strings stand for the structures. Counter-ions that a name gives are not always drawn.

As for `Cc1ccc2c3c(ccc2n1)OC[C@H](CN1CCC(Cc2ccc4c(c2)NC(=O)CC4)CC1)O3` [Example 20, 7-[(1-{[(2S)-8-Methyl-2,3-dihydro[1,4]dioxino[2,3-f]quinolin-2yl]methyl}piperidin-4-yl)methyl]-3,4-dihydroquinolin-2(1H)-one], the Ki was found to be 1.15 nM at h-5HT1A and 5.88 nM in assay [1].
The like results for `Cc1ccc2c3c(ccc2n1)OC[C@H](CN1CCC[C@@H](Oc2ccc4c(c2)NC(=O)CO4)C1)O3` [Example 25, 6-{[(3R)-1-{[(2S)-8-Methyl-2,3-dihydro[1,4]dioxino[2,3-f]quinolin-2-yl]methyl}piperidin-3-yl]oxy}-2H-1,4-benzoxazin-3(4H)-one] were, in that order, 13.8 nM and 146 nM.
The like results for `Cc1ccc2c3c(ccc2n1)OC[C@H](CN1CCCC(Cc2ccc4c(c2)NC(=O)CC4)C1)O3` (stereo partly drawn) [Example 24, 7-[(1-{[(2S)-8-Methyl-2,3-dihydro[1,4]dioxino[2,3-f]quinolin-2-yl]methyl}piperidin-3-yl)methyl]-3,4-dihydroquinolin-2(1H)-one] were, in that order, 2.33 nM and 9.77 nM.
Regarding `Cc1ccc2c3c(ccc2n1)OC[C@H](CN1CCC(CCc2ccc4c(c2)NC(=O)CO4)CC1)O3` [Example 14, 6-[2-(1-{[(2S)-8-Methyl-2,3-dihydro[1,4]dioxino[2,3-f]quinolin-2-yl]methyl}piperidin-4-yl)ethyl]-2H-1,4-benzoxazin-3(4H)-one dihydrochloride salt], the Ki at serotonin transporter came to 2.66 nM; on human 5HT1A receptors, 0.59 nM.
The like results for `Cc1ccc2c3c(ccc2n1)OC[C@H](CN1CC[C@H](Oc2ccc4c(c2)NC(=O)CO4)C1)O3` [Example 8, 6-{[(3S)-1-{[(2S)-8-Methyl-2,3-dihydro[1,4]dioxino[2,3-f]quinolin-2-yl]methyl}pyrrolidin-3-yl]oxy}-2H-1,4-benzoxazin-3(4H)-one dihydrochloride salt] were, in that order, 18.2 nM and 1.49 nM.
For `Cc1ccc2c3c(ccc2n1)OC[C@H](CN1CCCC(Cc2ccc4c(c2)NC(=O)CO4)C1)O3` (stereo partly drawn) [Example 16, 6-[(1-{[(2S)-8-Methyl-2,3-dihydro[1,4]dioxino[2,3-f]quinolin-2-yl]methyl}piperidin-3-yl)methyl]-2H-1,4-benzoxazin-3(4H)-one dihydrochloride salt], the inhibition constant (Ki) at serotonin transporter worked out at 5 nM; on human 5HT1A receptors, 0.4 nM.
Consider `Cc1ccc2c3c(ccc2n1)OC[C@H](CN1C2CCC1CC(Cc1ccc4c(c1)NC(=O)CC4)C2)O3` (stereo partly drawn) [Example 23, 7-[(8-{[(2S)-8-Methyl-2,3-dihydro[1,4]dioxino[2,3-f]quinolin-2-yl]methyl}-8-azabicyclo[3.2.1]oct-3-yl)methyl]-3,4-dihydroquinolin-2(1H)-one], for which the inhibitory constant (Ki) on h-5HT1A was found to be 2.42 nM; in assay [1] it was 12.4 nM.
For the compound `Cc1ccc2c3c(ccc2n1)OC[C@H](CN1CCCC(Cc2ccc4c(c2)N(C)C(=O)CO4)C1)O3` (stereo partly drawn) [Example 15, 4-Methyl-6-[(1-{[(2S)-8-methyl-2,3-dihydro[1,4]dioxino[2,3-f]quinolin-2-yl]methyl}piperidin-3-yl)methyl]-2H-1,4-benzoxazin-3(4H)-one dihydrochloride salt], the Ki was found to be 82 nM on serotonin transporter and 0.68 nM at human 5HT1A receptors.
As to `Cc1ccc2c3c(ccc2n1)OC[C@H](CNCCCOc1ccc2c(c1)NC(=O)CO2)O3` [Example 7, 6-[3-({[(2S)-8-Methyl-2,3-dihydro[1,4]dioxino[2,3-f]quinolin-2-yl]methyl}amino)propoxy]-2H-1,4-benzoxazin-3(4H)-one dihydrochloride salt], at human 5HT1A receptors, the Ki amounted to 0.1 nM.
Consider `Cc1ccc2c3c(ccc2n1)OC[C@H](CN1CCC(Oc2ccc4c(c2)N(C)C(=O)CO4)CC1)O3` [Example 5, 4-Methyl-6-[(1-{[(2S)-8-methyl-2,3-dihydro[1,4]dioxino[2,3-f]quinolin-2-yl]methyl}piperidin-4-yl)oxy]-2H-1,4-benzoxazin-3(4H)-one dihydrochloride salt], for which the figures for the inhibitory constant (Ki) on serotonin transporter and on human 5HT1A receptors were 11 nM and 0.54 nM, respectively.
`Cc1ccc2c3c(ccc2n1)OC[C@H](CNCCCCOc1ccc2c(c1)NC(=O)CO2)O3` [Example 6, 6-[4-({[(2S)-8-Methyl-2,3-dihydro[1,4]dioxino[2,3-f]quinolin-2-yl]methyl}amino)butoxy]-2H-1,4-benzoxazin-3(4H)-one dihydrochloride salt]: the results for the Ki at serotonin transporter and at human 5HT1A receptors were 11.9 nM and 0.25 nM, respectively.
As for `Cc1ccc2c3c(ccc2n1)OC[C@H](CN1CCC(CCc2ccc4c(c2)N(C)C(=O)CO4)CC1)O3` [Example 13, 4-Methyl-6-[2-(1-{[(2S)-8-methyl-2,3-dihydro[1,4]dioxino[2,3-f]quinolin-2-yl]methyl}piperidin-4-yl)ethyl]-2H-1,4-benzoxazin-3(4H)-one dihydrochloride salt], the Ki on serotonin transporter is 13.9 nM; on human 5HT1A receptors it was 0.63 nM.
In the same order, the values of `Cc1ccc2c3c(ccc2n1)OC[C@H](CNC1CCN(c2ccc4c(c2)NC(=O)CO4)CC1)O3` [Example 18, 6-(4-{[(8-methyl-2,3-dihydro[1,4]dioxino[2,3-f]quinolin-2-yl)methyl]amino}piperidin-1-yl)-2H-1,4-benzoxazin-3(4H)-one dihydrochloride salt] are 35.2 nM and 0.93 nM.
The like results for `Cc1ccc2c3c(ccc2n1)OC[C@H](CN1CCC(Cc2ccc4c(c2)NC(=O)CO4)CC1)O3` [Example 2, 6-[(1-{[(2S)-8-Methyl-2,3-dihydro[1,4]dioxino[2,3-f]quinolin-2-yl]methyl}piperidin-4-yl)methyl]-2H-1,4-benzoxazin-3(4H)-one dihydrochloride] were, in that order, 8.9 nM and 0.16 nM.
The like results for `Cc1ccc2c3c(ccc2n1)OC[C@H](CN1CCC(Oc2ccc4c(c2)NC(=O)CC4)CC1)O3` [Example 17, 7-[(1-{[(2S)-8-Methyl-2,3-dihydro[1,4]dioxino[2,3-f]quinolin-2-yl]methyl}piperidin-4-yl)oxy]-3,4-dihydroquinolin-2(1H)-one dihydrochloride salt] were, in that order, 38.1 nM and 0.28 nM.
`Cc1ccc2c3c(ccc2n1)OC[C@H](CN1CC[C@@H](Oc2ccc4c(c2)NC(=O)CO4)C1)O3` [Example 9, 6-{[(3R)-1-{[(2S)-8-Methyl-2,3-dihydro[1,4]dioxino[2,3-f]quinolin-2-yl]methyl}pyrrolidin-3-yl]oxy}-2H-1,4-benzoxazin-3(4H)-one dihydrochloride salt]: the Ki is 4.5 nM on serotonin transporter and 3.53 nM on human 5HT1A receptors.
In the same order, the values of `Cc1ccc2c3c(ccc2n1)OC[C@H](CN1CCC(Cc2ccc4c(c2)N(C)C(=O)CO4)CC1)O3` [Example 12, 4-Methyl-6-[(1-{[(2S)-8-methyl-2,3-dihydro[1,4]dioxino[2,3-f]quinolin-2-yl]methyl}piperidin-4-yl)methyl]-2H-1,4-benzoxazin-3(4H)-one dihydrochloride salt] are 6.65 nM and 0.29 nM.

For the origin of these results see patent publication US20090042874A1, “ANTIDEPRESSANT HETEROARYL DERIVATIVES OF HETEROCYCLE-FUSED BENZODIOXANS” (WYETH, priority 2007, published 2009).
